The values below come from article PMC10957775, “Integrated chemical characterization, metabolite profiling, and pharmacokinetics analysis of Zhijun Tangshen Decoction by UPLC-Q/TOF-MS” (Frontiers in Pharmacology, 2024).

On the set-up of data set [1]: AUC(0→t) / Cmax: unit not given beside the values. The conditions noted are these: rat, in vivo.
The subject of the next data set is DN mice. Set-up: method as in Tian et al., 2018. Conditions: ref Tian et al., 2018; cited from earlier work.
Data set [2] can be described thus: Multi-compound pharmacokinetics of ZJTSD in rat serum, semi-quantitative UPLC-Q/TOF-MS (peak area ratio versus time, non-compartmental). Conditions: male, Sprague-Dawley, rat, serum (hepatic portal vein blood), po, 1 mL/100 g body weight.
Description: (§1) Thirty male Sprague–Dawley rats (200 ± 20 g) were purchased from the Nanjing Qinglongshan Experimental Animal Center (Nanjing, China). […] All rats were divided randomly into two groups: ZJTSD-dosed group (n = 27) and control group (n = 3). The ZJTSD-dosed group was given the ZJTSD solution by gavage (i.g.) at a dosage of 1 mL/100 g body weight of rats, and the control group was given 0.9% normal saline at the same dose, twice a day for a week. After the last administration, the blood was collected from the hepatic portal vein at 15 min, 30 min, 1 h, 2 h, 4 h, 6 h, 8 h, 12 h, and 24 h, and 3 rats were taken at each time point.
(§2) The blood samples of rats were centrifuged at 4,000 rpm for 10 min to obtain the serum. The serum sample (1 mL) was processed with a 3-fold volume using methanol for protein precipitation, with epicoprostanol serving as the internal standard (digoxin and clarithromycin). After vortexing for 3 min, the mixture was centrifuged at 18,000 rpm for 10 min. Subsequently, the supernatant was evaporated at 45°C using a vacuum concentrator. After evaporating the solvent, 150 μL of methanol/water (1:1, v/v) was added, vortexed, sonicated, and then centrifuged at 18,000 rpm for 10 min at 4°C. The resulting supernatant was used for further analysis.
(§3) Liquid chromatographic separation was performed using an AB SCIEX LC™ 2.0 system (AB SCIEX, United States) fitted with an Acquity UPLC BEH C18 column (100 mm × 2.1 mm, 1.7 μm; Ireland). The mobile phases in negative and positive ion modes consisted of 0.1% FA aqueous solution (A) and acetonitrile containing 0.1% FA (B). The program of the elution gradient was set as follows: 0∼5 min, 2%∼35 %B; 5∼7 min, 35%∼50%; 7∼10 min, 50%∼70%; 10∼15 min, 70%∼90 %B; 15∼18 min, 90%∼90 %B; 18∼18.5 min, 90%∼2 %B; and 18.5∼20 min, 2%∼2 %B. The injection volume was 3 µL. The flow rate and the column temperature were set at 0.3 mL/min and 40°C, respectively.
(§4) The mass spectrometry analysis was performed on a SCIEX ZenoTOF™ 7600 system (AB SCIEX, United States), which was calibrated in the high-sensitivity mode for every 10 samples. Spectra were acquired in the TOF/MS-IDA-TOF MS/MS mode with the ESI source operating in positive and negative ion modes. MS parameters were set as follows: ionization source, ESI; spray voltage, 5,500 kV/–4,500 kV; collision energy, 40 V/–40 V; declustering potential, 80 V/–80 V; ion source temperature, 550°C; and scan range, 100–1250 m/z. Data acquisition and processing were performed using SCIEX OS 2.2 and PeakView 2.2.
(§5) A semi-quantitative method was adopted based on the correction peak area versus time ([Wang et al., 2011]; [Lin et al., 2019]). The mean serum time-course profile of pharmacokinetics based on the peak area ratio versus time was plotted using Origin 2018. The kinetic analysis of the peak area ratio (×1,000)–time curve was calculated using Phoenix WinNonlin 8.1 (Phoenix, American) software and illustrated.
The subject of a further data set is DN. More on the design: method as in Guo et al., 2017. The conditions noted are these: in vitro and in vivo; ref Guo et al., 2017; cited from earlier work.
The nature of another data set: in vivo. The conditions noted are these: male, Sprague-Dawley, rat, po; for half-life: t1/2.

Read-outs that look alike come from different tables or passages of the source.

Description for in vivo: as §1, §2, §3, §4, §5

Turning to `Cc1cc(O)c2c(c1)C(=O)c1cc(O)cc(O)c1C2=O` [P16, Emodin], the “detection in serum / absorbed form” value in data set [1] (po) is on record as “absorbed as prototype compounds”. In addition, the “effect on urinary albumin, serum creatinine and blood urea nitrogen” value with DN mice was “improved urinary albumin, serum creatinine, and blood urea nitrogen levels”. Also, in data set [2], the MRT last stood at 5.84 ± 0.37 h and the Tmax was determined as 2.83 ± 2.02 h. Further, in data set [2] (t1/2, prototype compounds of ZJTSD absorbed into rat serum, mean±SD, n=3), the half-life was 8.19 ± 9.39 h.

As for `Cc1cc(O)c2c(c1)C(=O)c1cccc(O)c1C2=O` [P13, Chrysophanol], in data set [1], the “AUC(0→t)” value amounted to 119599.26±21102.35 and the Cmax is given as 26478.39±12536.14. In data set [1] (po), the “level of exposure in the blood (in words)” value is “higher level of exposure”. Moreover, the “effect on progression of DN” value in the data set with DN is recorded as “significantly slowed the progression of DN”. In “in vivo”, the MRT last came to 4.89 ± 0.61 h, the Tmax was found to be 1.67 ± 2.02 h and the half-life was 2.42 ± 1.63 h.

In the case of `CCCCCCCCCCCCCCCC(=O)OC[C@@H](O)COP(=O)([O-])OCC[N+](C)(C)C` [P50, 1-O-Hexadecanoyl-sn-glycero-3-phosphocholine], in data set [1], the “AUC(0→t)” value was determined as 149276.86±8351.53 and the Cmax turned out to be 11488.73±739.96. Besides, in “in vivo”, the MRT last is 10.2 ± 0.58 h, the Tmax came out at 1 ± 0.87 h and the half-life was 21.9 ± 12.8 h.

As for `CCCCOC(=O)c1ccccc1C(=O)OCCCC` [P49, Dibutyl phthalate], in data set [1], the “AUC(0→t)” value came to 542.84±7.58 and the Cmax amounted to 26.50±1.13. Further, in the data set “in vivo”, the MRT last was 12.1 ± 0.17 h and the Tmax came out at 8.08 ± 6.78 h.

On to `C[N+](C)(C)CCOP(=O)([O-])OCC(O)COCCCCCCCCCCCCCCC=O` (stereo not shown) [M99], for which, in data set [1] (po), the Tmax is on record as not above 3.5 h; the “elimination half-life (t1/2)” value was more than 7.5 h; the “pharmacokinetic behavior compared with other prototype compounds and metabolites (in words)” value is on record as “better pharmacokinetic behavior”.

Regarding `O=C(O)c1cc2c(cc1O)C(=O)c1ccccc1C2=O` [M28], in data set [1] (po), the “AUC (in words)” value is listed as “greater”; the Tmax is on record as not above 3.5 h; the “elimination half-life (t1/2)” value is listed as “less than 4 h”; the “pharmacokinetic behavior compared with other prototype compounds and metabolites (in words)” value is “better pharmacokinetic behavior”.
